Data from the METLIN SMRT retention time set (Domingo-Almenara et al. 2019).

Assay: gradient 5% acetonitrile 3 min, to 50% in 2 min, to 85% in 15 min, held 3 min, 100 µL/min
Conditions: column: Zorbax Extend-C18 2.1 x 50 mm; eluents: water / acetonitrile, 0.1% formic acid
Outline: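 Retention times of pure standards were taken from adduct peaks that were selected by computer and manually inspected. Over 3 months, mixtures of ~100 molecules were run by HPLC–quadrupole time-of-flight mass spectrometry in positive and negative ionization mode. The Zorbax Extend-C18 column (2.1 × 50 mm, 1.8 μm) ran at 100 μL/min in water and acetonitrile, each containing 0.1% formic acid, with 40 μL dead volume and 900 μL dwell volume.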

Row | Compound | RP-LC retention time [s]
1 | COc1ccc(N(C)C(=O)c2nc(C)n(C3CCN(S(C)(=O)=O)CC3)c2C)cc1 | 600
2 | CCOC(=O)C1CCN(C(=O)C2CCN(c3nnc(-c4ccc(C)cc4)o3)CC2)CC1 | 842
3 | O=C(NCc1csc(C2CCN(C(=O)C3CCCO3)CC2)n1)C1CC1 (stereo not given) | 614
4 | CCc1nnc(-c2ccc3ccn(CC(=O)Nc4cccc(OC)c4)c3c2)o1 | 839
5 | O[C@@H]1CCCCC1N1CCC(c2ccccc2)CC1 (stereo not given in full) | 702
6 | Cc1nnc(-c2cccnc2N2CCN(C(=O)CC3CCCC3)CC2)o1 | 728
7 | CC(=O)NCCc1csc(C2CCN(C(=O)C3CCCO3)CC2)n1 (stereo not given) | 581
8 | C=CCN1CCN(c2nc3cc(C(=O)OC)ccc3c(=O)n2-c2ccc(OC)c(OC)c2)CC1 | 631
9 | Cc1nc(C2CCCN2Cc2ccc(C)s2)n[nH]1 (stereo not given) | 554
10 | CC(C)(NC(=O)C1CCCO1)c1nc2c(c(C(N)=O)n1)OCO2 (stereo not given) | 563
11 | CCCOC(=O)C1=C(C)NC2=C(C(=O)CCC2)C1c1ccc(OC)c(OC)c1OC (stereo not given) | 791
12 | CC1CCN(c2nnc(-n3cccc3CN3CCN(c4ccccn4)CC3)s2)CC1 | 658
13 | Cc1c(-c2ccnc(N3CCN(C)CC3)n2)cnc2nc(-c3cccs3)nn12 | 601
14 | COCC(=O)N[C@@H]1CN(C2CCCCCC2)CC[C@@H]1CO | 561
15 | O=C(Nc1ccc2c(c1)CCC2)C1CCc2nc(N3CCOCC3)ncc2C1 (stereo not given) | 793
16 | CCC(=O)Nc1cc2c(cc1Sc1ccc(C)cc1)n(C)c(=O)n2C | 893
17 | O=C([C@@H]1OCC(=O)N(C2CC2)[C@H]1c1ccccc1)N1CCN(c2ccccc2)CC1 | 834
18 | CC1CCN(S(=O)(=O)N2CCC(C(=O)N3CCC(Cc4nncn4C(C)C)CC3)CC2)CC1 | 720
19 | Cc1nn2c(CNS(=O)(=O)c3c(C)noc3C)c(C)nc2s1 | 640
20 | CCc1cccc(-n2nnc(C(=O)N3CCC4(CC3)OCCO4)c2-c2ccncc2)c1 | 744
21 | Cn1nc(-c2nc(-c3cccc(F)c3)no2)c2c1CCN(C(=O)C1CCCO1)C2 (stereo not given) | 789
22 | CCN(CC)C(=O)c1ccc2nc(-c3ccc(C)c(C)c3)cn2c1 | 669
23 | COc1ccc(C[C@@H]2NC[C@@H](O)[C@@H]2OC(C)=O)cc1 | 600
24 | CCCC(C)NC(=O)c1cc2c(s1)N(C)CCCC2 (stereo not given) | 974
25 | Cc1cc(NC(=O)C2CCCN2S(=O)(=O)c2ccc(Cl)s2)n(C(C)C)n1 (stereo not given) | 776
26 | COC(=O)C1=CN(c2cccc(F)c2)c2ccccc2S1(=O)=O | 796
27 | CC(C)(CO)NCc1ccc(-c2ccc(Cl)cc2)o1 | 655

Row | Compound | RP-LC retention time [s]
28 | CCOC(=O)c1c(C)[nH]c2cc(Br)c(O)cc12 | 768
29 | CCOC(=O)CNC(=O)N(C)Cc1nc2cc(C(=O)N(C)C)ccc2n1C | 566
30 | CC(C)Sc1cc2c(cc1NC(=O)Cc1cccc(F)c1)n(C)c(=O)n2C | 987
31 | COc1ccc(C(C)NC(=O)Cc2c[nH]c3ncccc23)cc1 (stereo not given) | 614
32 | O=C(Nc1ccccc1)C1CCCN(S(=O)(=O)c2c[nH]c(C(=O)N3CCCCCC3)c2)C1 (stereo not given) | 876
33 | Cn1nc(C(=O)Nc2ccccc2)c2c1CCN(C(=O)NCc1ccco1)C2 | 760
34 | COC(=O)c1ccc(C(=O)OC)c(NC(=O)c2cnc3n(c2=O)CCS3)c1 | 700
35 | CCOC(=O)c1c(C)oc2nc(C)nc(NC3CCCc4ccccc43)c12 (stereo not given) | 1130
36 | CCCCN1CCN(C(=O)CN2CCN(Cc3ccccc3)C2=O)CC1 | 589
37 | O=C(Nc1nc(-c2ccc(Cl)cc2)cs1)c1cccc(-n2cnnc2)n1 | 865
38 | Cc1oc2c(C)c3oc(=O)c(CCC(=O)N4CCN(c5ccccn5)CC4)c(C)c3cc2c1C | 728
39 | COCC(C)(O)CNC(=O)NC1CCCCC1 (stereo not given) | 596
40 | Cn1cc(-c2cc3n(n2)CCCN3C(=O)CCC(=O)N2CCCCCC2)c2ccccc21 | 837
41 | CC1CCCN(S(=O)(=O)c2ccc(-n3cnc(C(=O)N4CCN(C)CC4)c3)nc2)C1 (stereo not given) | 648
42 | Cc1cccc(N2CCN(C(=O)C3CCN(c4cncnc4N(C)C)CC3)CC2)c1C | 756
43 | Cc1cc(-c2nn3c(COc4ccccc4)nnc3s2)no1 | 855
44 | O=C(CCSc1ccccc1)Nc1cc(-c2cccs2)nn1CCO | 793
45 | Cc1cnc(C(=O)N2CCCC(c3nnc4n3CCN(C(=O)C3CC3)C4)C2)cn1 (stereo not given) | 584
46 | COc1ccc(Nc2ccc3c(=O)c(-c4ccccc4OC)c(C)oc3c2)cc1 | 947
47 | CCN(CC)CCCNC(=O)c1nnc(-c2ccc(S(=O)(=O)N3CCOCC3)cc2)o1 | 600
48 | O=C(CCNc1c(-c2ccccc2)nc2cnccn12)NCc1ccccc1F | 698
49 | Cc1ccccc1-c1noc(Cn2c(=O)n(Cc3ccco3)c(=O)c3ccccc32)n1 | 1100
50 | CCOC(=O)N1CCN(C(=O)c2cccc([N+](=O)[O-])c2C)CC1 | 695
51 | Cc1sc(C)c(S(=O)(=O)NC2CC2)c1-c1cc(C(F)(F)F)on1 | 1070
52 | COc1ccc(S(=O)(=O)NCCCCN2CCOC(c3ccccc3)C2)c(C)c1 (stereo not given) | 600
53 | CCCn1cc(C(=O)NCc2cccnc2)c2cccnc21 | 580

Second part, the molecule after the results:

Row | RP-LC retention time [s] | Compound
54 | 580 | Cc1nc2cccnc2n1-c1ccc(C(=O)NCCCN2CCCC2=O)cc1
55 | 681 | COc1ccc(Cn2nc3ccc(S(=O)(=O)N4CCCCCC4)cn3c2=O)cc1F
56 | 1150 | COC(=O)c1ccc(Cl)cc1NC(=O)N1CCN(Cc2nc3cc(Cl)ccc3o2)CC1
57 | 612 | CCc1ccc2[nH]c3c(c(=O)c2c1)CN(CC(=O)NCc1ccc(OC)cc1)CC3
58 | 624 | COc1ccc(CNC(=O)c2ccc3ncnc(N4CCCC4)c3c2)cc1
59 | 925 | CC(C)N1C(=O)c2cccnc2Sc2cc(NC(=O)c3ccc(F)c(F)c3)ccc21
60 | 688 | CCn1cc(CN2CCC(C(=O)NC3CCCCC3)CC2)c2cc(OC)ccc21
61 | 784 | Cc1ccccc1Cn1cc(S(=O)(=O)N2CCOCC2)ccc1=O
62 | 667 | CCN1CCC(N(Cc2cccs2)C(=O)Nc2ccc(C)cc2)CC1
63 | 785 | CNC(=O)c1sc(-c2ccc(C)cc2)nc1C
64 | 669 | Cc1cc(NC(=O)Cn2cnc(-c3cccs3)cc2=O)no1
65 | 768 | Cn1nc(-c2nc(C3CC3)no2)c2c1CCN(C(=O)Nc1ccc(F)cc1)C2
66 | 850 | CCn1c(=O)c(N2CCC(NC(=O)NCc3ccc(F)cc3)CC2)nc2cccnc21
67 | 880 | CNC(=O)N1CCCC(c2cccc(C(=O)NC(C)c3ccc(C)cc3C)c2)C1 (stereo not given)
68 | 664 | Cc1c(Cl)ccc2c(=O)c3c([nH]c12)CCN(CC(=O)Nc1cc(F)cc(F)c1)C3
69 | 986 | Cc1cc(C)cc(Oc2cc(N3CCC(C(=O)NCCc4ccccc4)CC3)ncn2)c1
70 | 650 | CCc1ccc(S(=O)(=O)Nc2ccc(N3CCCN(C)CC3)cc2C(=O)O)cc1
71 | 915 | CN1CCCc2cc(C(=O)NCc3ccccc3F)sc21
72 | 690 | Cn1nc(C(=O)N2CCCC(c3nnc(-c4ccccc4F)s3)C2)ccc1=O (stereo not given)

Row | RP-LC retention time [s] | Compound
73 | 792 | CCn1c(=O)sc2cc(S(=O)(=O)N3CCC(C(=O)NCc4ccco4)CC3)ccc21
74 | 769 | CCc1ccc(NC(=O)N2CCC(N3CCN(Cc4ccc(F)cc4)C(=O)C3=O)CC2)cc1
75 | 779 | Cc1ccc(Cn2c(=O)n(CCNC(=O)C3CCC3)c3ncccc32)cc1
76 | 660 | COc1cn2c(cc1=O)C(=O)N(CCNC(=O)c1c(F)cccc1Cl)CC2
77 | 1100 | Cc1ccc(C)c(-c2csc(NC(=O)c3ccc(C)o3)n2)c1
78 | 1080 | Cc1ccc(Cn2cccc2C(=O)C(=O)NCc2ccc(C)o2)cc1
79 | 1340 | Cc1ccc(-c2noc(C3CCCN3S(=O)(=O)c3cc(C)c(C)cc3C)n2)cc1 (stereo not given)
80 | 1310 | Cc1nc(-c2ccccc2)sc1C(=O)Nc1nc(-c2ccccc2Cl)cs1
81 | 912 | CN(C)S(=O)(=O)c1ccc(-c2nnc(C(=O)NCc3ccc(Br)cc3)o2)cc1
82 | 800 | Cn1nc(-c2nc(-c3ccccc3F)no2)c2c1CCN(C(=O)NC1CCCC1)C2
83 | 909 | O=C(Cn1ccn2nc(-c3ccc(F)cc3)c(CO)c2c1=O)Nc1ccc(Cl)cc1F
84 | 691 | CN(C)CCNC(=O)C1CCN(c2nc3ccc(-c4cccc(F)c4)nc3s2)CC1
85 | 1020 | Cc1ccc(CNC(=O)c2nnc(-c3ccc(S(=O)(=O)N4CCCCC4)cc3)o2)cc1
86 | 870 | Cc1cccnc1Nc1nc(-c2ccc(F)cc2)cs1
87 | 621 | CC1CCN(CCNC(=O)c2ccc3c(c2)nc2n3CCN(Cc3ccccc3)C2=O)CC1
88 | 919 | Cc1sc2ccn(Cc3ccc(F)cc3)c(=O)c2c1C(=O)NC1CCCC1
89 | 1130 | CCOc1ccc(NC(=O)c2cc(C)n3nc(-c4ccco4)cc3n2)cc1
90 | 751 | CCOc1cc(=O)c(C(=O)N2CCN(c3ncccn3)CC2)nn1-c1ccc(C)cc1
